Test results reported in article PMC10537403 (Viruses, 2023).
No end group written: not given here.

What was measured:
Type in all cases: cell-based
[1] = tested on: caprine herpesvirus type 1 (CpHV-1, reference Swiss strain E/CH); assay: Antiviral activity against CpHV-1, plaque assay, time of addition assays; conditions: MDBK cells
[2] = tested on: Schmallenberg virus (SBV); conditions: BHK-21 cells, SBV 200 TCID50 incubated with peptide 1 h, CPE at 72 h, MTT staining
[3] = tested on: bovine herpesvirus type 1 (BoHV-1, Cooper strain); assay: Antiviral activity against BoHV-1, plaque assay, time of addition assays; conditions: MDBK cells
[4] = tested on: canine distemper virus (CDV, strain Onderstepoort); assay: Antiviral activity against CDV, plaque assay, time of addition assays; conditions: VERO/hSLAM cells, co-treatment, virus pre-treatment, cell pre-treatment, post-treatment
[5] = tested on: VERO/hSLAM, BHK-21, and MDBK cell lines; assay: Cytotoxicity, MTT assay; conditions: 2 and 24 h, peptides […] to 100 μM

| Substance | Antiviral action against CpHV-1 (in words) [1] | Activity against SBV infection (in words) [2] | Antiviral action against BoHV-1 (in words) [3] | Inhibitory effect against CDV in all the time-addition assays (in words) [4] | Cytotoxicity (in words) [5] |
| --- | --- | --- | --- | --- | --- |
| H-GILDAIKAIAKAAG-OH [Hylaseptin-P1, amphibian peptide derived from Leptopelis aubryi] | no antiviral action | any activity | no antiviral action | did not show an inhibitory effect | not cytotoxic even at higher concentrations tested |
| H-GLADFLNKAVGKVVDFVKS-NH2 [Deserticolin-1, amphibian peptide secreted by Crinia deserticola] | no antiviral action | any activity | no antiviral action | did not show an inhibitory effect | not cytotoxic even at higher concentrations tested |
| RIGVLLARLPKLFSLFKLMGKKV-NH2 [RV-23] | – | able to reduce SBV infection with a higher efficacy | – | – | – |
